Entries after “also recorded” stand apart in the source; their conditions may differ.
Assays:
[1] = tested on: PCa cell lines (DU145, 22Rv1, LNCaP, PC3); assay: Western blot of apoptotic and antiapoptotic proteins in PCa cell lines; type: cell-based; conditions: for expression of Bcl-XL: 22Rv1; for expression of c-IAP2: DU145 cells and LNCaP; for Survivin levels: LNCaP; for expression of MCL-1: any cell lines
Experimental: We investigated the effects of ARi on PCa cells' expression of Bcl-2 proteins and cytokine secretion to assess a possible priming effect of treatment, making these cells susceptible to NK cell killing. Enzalutamide (5, 10, and 15 μM) and darolutamide (10, 20 μM) reduced the expression of the X-linked inhibitor of apoptosis (XIAP) in DU145, 22Rv1, and LNCaP cell lines (FIG. 14A-B). Western Blot analysis of apoptotic and antiapoptotic proteins on the PCa cell lines with darolutamide (10 and 20 μM) and enzalutamide ([…]) for 48 h. Treatment with ARi on the PCa cell lines evidenced changes in both pro and antiapoptotic proteins, irrespective of ARi sensitivity. The changes in protein expression were not similar in the PCa cell lines and cannot explain a single mechanism of tumor cell priming for NK cell killing.
Anti-apoptotic proteins and androgen receptor expression in prostate cancer cell lines and immune cells (NK-92) were examined using a western blot. A total of 1×10^5 cells were plated and incubated in a 6 or 12-well plate ([…] 229111 and 229105) for 24 hours to allow the cells to adhere (tumor cells). Treatment conditions were added after cell adhesion or in conjunction with NK cells when these were analyzed. Cells were harvested and lysed using RIPA buffer containing protease inhibitor (Cell Signaling Technology 9806S) and phosphatase inhibitor (PHOSS-RO Roche 4906845001). Denaturing sample buffer was added, and samples were boiled at 95° C. for 10 minutes and an equal amount of protein lysate (10-20 ug) was electrophoresed through 4-12% SDS-PAGE gels (Invitrogen) and then transferred to PVDF membranes. The membrane was blocked with 5% milk in 1×TTBS and incubated overnight with the appropriate primary antibody (Cell Signaling c-IAP2 58C7 Rabbit mAb #3130; Cell Signaling XIAP Antibody #2042; Cell Signaling Mcl-1 (D2W9E) Rabbit mAb #94296; Cell Signaling Survivin (71G4B7) Rabbit mAb; Cell Signaling Ran Antibody #4462; Cell Signaling PARP 9542T mAb; Cell Signaling Bcl-2 Antibody #2876; Cell Signaling Bcl-xL (54H6) Rabbit mAb; Sigma Aldrich Monoclonal Anti-B-Actin antibody #A5441; Cell Signaling Androgen Receptor (E3S4N) Rabbit mAb (Carboxy-terminal Antigen) #70317). The primary antibody membranes were incubated in the appropriate HRP-conjugated secondary antibody (either mouse, Thermo Scientific #31430, or rabbit, Thermo Scientific #31460) for two hours. The levels of antibody binding were detected using ECL western blotting detection reagent and the Syngene imaging system.

PC3 = assay: Co-culture of GFP-expressing PC3 with patient-derived NK cells; type: cell-based, human; conditions: GFP PC3, 1:1, 24 h; monalizumab in combination with enza and daro
From the text: To validate an additive effect of ARi and monalizumab enhancing NK cell cytotoxicity, we performed a co-culture assay with GFP-labeled PCa cell lines (including ARi-sensitive LNCaP and ARi-resistant PC3) and patient-derived NK cells. The NK cells were negatively selected from whole blood from patients with metastatic prostate cancer before initiation of androgen deprivation therapy. The addition of enzalutamide or darolutamide enhanced the cytotoxicity of NK cells, and the combination of ARi with monalizumab potentiated immune killing (FIG. 15C-D).
Prostate cancer cell lines were dyed with the blue CMAC live-cell dye (Thermo Fisher Scientific #C2110, per manufacturer protocol). Blue-fluorescent cancer cells were plated at a density of 10,000 cells per well of a 48-well plate. NK-92 cells were dyed with green CMFDA (Cayman Chemical Company #19583, per manufacturer protocol). Green-fluorescent NK-92 cells were added to the blue-fluorescent cancer cells at a 1:1 ratio. Enzalutamide (10 μM), darolutamide (20 μM), and 1 μM ethidium homodimer (EthD-1) were added at the same time as the NK cells. After 24 hours of co-culture, images of live cancer cells, live NK cells, and dead cells were taken using a fluorescent microscope. The co-culture experiments were run with internal control conditions and as a single treatment. Normalization was performed after analysis to take baseline death conditions into each experiment run. To optimize the high output of these experiments, a subset of co-cultures were performed using the ImageXpress® Micro Confocal High-Content Imaging. This analysis maintained the experiment conditions, drug concentrations, and the dyeing process. When GFP-labeled tumor cells were used for culture assays, they were added in a 1:1 ratio. Cell adhered over 24 h, and when patient-derived NK cells were added, a control well was trypsinized, and cells resuspended and counted to adjust a 1:1 ratio before treatment addition. The experiments with blocking antibodies were performed using the ImageXpress system. TRAIL blocking ab was purchased from Santa Cruz TRAIL Antibody (RIK-2): sc-56246, and IFN gamma blocking Monoclonal Antibody (NIB42, #6-7318-81) was purchased from Thermo Fisher. The blocking mAb was added when NK cells were combined with tumor cells.
NK cells were isolated from patients harboring metastatic castration-sensitive prostate cancer using the MojoSort™ Human NK Cell Isolation Kit (#480053). Patients signed informed consent for IRB-approved research protocol number 2055-13, allowing the collection of peripheral blood samples. […] The untouched NK cells (CD56+, CD3−) were collected, and the purity of isolation was determined by flow cytometry using anti-CD56 (BioLegend 362503). […]

[2] = DU145, 22Rv1, LNCaP, enzalutamide 5, 10, 15 μM, darolutamide 10, 20 μM, 48 h

SMILES	expression of Bcl-XL [1]	expression of Bcl-XL ([1]; listed as Darolutamide)	expression of XIAP [1, 2]	expression of XIAP ([1]; DU145, 22Rv1, LNCaP, enzalutamide 5, 10, 15 μM, darolutamide 10, 20 μM, 48 h, listed as Darolutamide)	expression of c-IAP2 [1]	expression of c-IAP2 ([1]; listed as Darolutamide)	Survivin levels [1]	Survivin levels ([1]; listed as Darolutamide)	expression of XIAP ([1]; PC3)	expression of MCL-1 [1]	killing of PCa cells by patient-derived NK cells (in words) (PC3)	expression of Bcl-XL ([1]; listed as Enzalutamide)	expression of c-IAP2 ([1]; listed as Enzalutamide)	Survivin levels ([1]; listed as Enzalutamide)
CC(O)c1cc(C(=O)N[C@@H](C)Cn2ccc(-c3ccc(C#N)c(Cl)c3)n2)n[nH]1 (stereo partly drawn) [darolutamide]	reduced	lower levels	reduced; also recorded: more pronounced	reduced levels	reduced	reduced levels	decreased	lower levels	did not change	no significant change	enhanced			
CNC(=O)c1ccc(N2C(=S)N(c3ccc(C#N)c(C(F)(F)F)c3)C(=O)C2(C)C)cc1F [enzalutamide]	reduced		reduced levels		reduced		decreased		did not change	no significant change	enhanced	lower levels	reduced levels	lower levels
